In assay [1] the target is T1, hMC4R (Homo sapiens, UniProt P32245). The assay is described as follows: Competitive binding assay against TRF probe 19, six-well plate protocol. To be noted: for inhibition of the binding and uptake of probe 19: over the concentration range tested (10 μM–0.10 nM), probe 19 20 nM; for Relative Potency: compared to the monovalent MSH(4) construct with the same scaffold core; for Ki lower than / inhibition higher than the corresponding monovalent molecule: divalent versus monovalent, against probe 19.
T1 sequence (P32245 whole entry): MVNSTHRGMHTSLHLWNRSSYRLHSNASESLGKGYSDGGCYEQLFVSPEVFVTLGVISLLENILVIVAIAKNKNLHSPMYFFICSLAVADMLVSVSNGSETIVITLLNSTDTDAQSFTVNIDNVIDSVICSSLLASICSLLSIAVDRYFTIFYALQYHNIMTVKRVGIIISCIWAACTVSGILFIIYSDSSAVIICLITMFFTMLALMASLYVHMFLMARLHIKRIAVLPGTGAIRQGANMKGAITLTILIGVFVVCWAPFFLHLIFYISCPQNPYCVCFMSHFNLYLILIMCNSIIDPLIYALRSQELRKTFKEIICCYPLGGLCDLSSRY

Assay [2] has as its target T1, hMC4R. The conditions noted are these: saturation binding assays using older protocol (96-well plates); ref [14]; cited from earlier work.

Structures are written as SMILES. Entries after “also recorded” stand apart in the source; their conditions may differ. Square brackets hold non-standard residues; d marks the D form. Peptide text beside a SMILES is read from it. * marks the point of attachment. X1 = O=C(O)CN(CCN(CC(=O)O)CC(=O)O)CCN(CC(=O)O)CC(=O)NCCCOCCOCCOCCCNC(=O)COCC(=O)*; Nle = CCCC[C@H](N)C(=O)O

As for `NC(=O)[C@H](CO)NC(=O)CCCCCn1cc(COc2cc(OCc3cn(CCCCCC(=O)N[C@@H](CO)C(N)=O)nn3)cc(OCc3cn(CCCCCC(=O)N[C@@H](CO)C(N)=O)nn3)c2)nn1` [Compound 12a, 6,6′,6″-(4,4′,4″-((Benzene-1,3,5-triyltris(oxy))tris(methylene))tris(1H-1,2,3-triazole-4,1-diyl))tris(N-((S)-1-amino-3-hydroxy-1-oxopropan-2-yl)hexanamide)], the “inhibition of the binding and uptake of probe 19” value at hMC4R [1] is “did not inhibit; also recorded: not competitive inhibitors”.

In general, Ki refers to the dissociation constant of the complex between target and ligand, obtained from inhibition or displacement. Low readings indicate higher affinity, high ones lower affinity. For `N=C(N)NCCC[C@H](NC(=O)[C@@H](Cc1ccccc1)NC(=O)[C@H](Cc1c[nH]cn1)NC(=O)CCCCCn1cc(COc2cc(OCc3cn(CCCCCC(=O)N[C@@H](CO)C(N)=O)nn3)cc(OCc3cn(CCCCCC(=O)N[C@@H](CO)C(N)=O)nn3)c2)nn1)C(=O)N[C@@H](Cc1c[nH]c2ccccc12)C(N)=O` [Compound 14a, 6,6′-(4,4′-(((5-((1-((6S,9R,12S)-12-((1H-Imidazol-4-yl)methyl)-1-amino-6-(((S)-1-amino-3-(1H-indol-3-yl)-1-oxopropan-2-yl)carbamoyl)-9-benzyl-1-imino-8,11,14-trioxo-2,7,10,13-tetraazanonadecan-19-yl)-1H-1,2,3-triazol-4-yl)methoxy)-1,3-phenylene)bis(oxy))bis(methylene))bis(1H-1,2,3-triazole-4,1-diyl))bis(N-(1-amino-3-hydroxy-1-oxopropan-2-yl)hexanamide)], at hMC4R [1], the affinity corresponds to a Ki of 990 ± 140 nM and the “Relative Potency” value was 1.

Regarding `N=C(N)NCCC[C@H](NC(=O)[C@@H](Cc1ccccc1)NC(=O)[C@H](Cc1c[nH]cn1)NC(=O)CCCCCn1cc(COc2cc(OCc3cn(CCCCCC(=O)N[C@@H](CO)C(N)=O)nn3)cc(OCc3cn(CCCCCC(=O)N[C@@H](Cc4c[nH]cn4)C(=O)N[C@H](Cc4ccccc4)C(=O)N[C@@H](CCCNC(=N)N)C(=O)N[C@@H](Cc4c[nH]c5ccccc45)C(N)=O)nn3)c2)nn1)C(=O)N[C@@H](Cc1c[nH]c2ccccc12)C(N)=O` [Compound 14b, 6,6′-(4,4′-(((5-((1-(6-((1-Amino-3-hydroxy-1-oxopropan-2-yl)amino)-6-oxohexyl)-1H-1,2,3-triazol-4-yl)methoxy)-1,3-phenylene)bis(oxy))bis(methylene))bis(1H-1,2,3-triazole-4,1-diyl))bis(N-((S)-1-(((R)-1-(((S)-1-(((S)-1-amino-3-(1H-indol-3-yl)-1-oxopropan-2-yl)amino)-5-guanidino-1-oxopentan-2-yl)amino)-1-oxo-3-phenylpropan-2-yl)amino)-3-(1H-imidazol-4-yl)-1-oxopropan-2-yl)hexanamide)], at hMC4R [1], the inhibition constant (Ki) was determined as 91 ± 13 nM, the “Relative Potency” value stood at 11 and the “Ki lower than / inhibition higher than the corresponding monovalent molecule” value came to 11 fold.

In the case of `NC(=O)[C@H](CO)NC(=O)CCCCCn1cc(CN(Cc2cn(CCCCCC(=O)N[C@@H](CO)C(N)=O)nn2)Cc2cn(CCCCCC(=O)N[C@@H](CO)C(N)=O)nn2)nn1` [Compound 15a, 6,6′,6″-(4,4′,4″-(Nitrilotris(methylene))tris(1H-1,2,3-triazole-4,1-diyl))tris(N-((S)-1-amino-3-hydroxy-1-oxopropan-2-yl)hexanamide)], the “inhibition of the binding and uptake of probe 19” value at hMC4R [1] was “did not inhibit; also recorded: not competitive inhibitors”.

As to `N=C(N)NCCC[C@H](NC(=O)[C@@H](Cc1ccccc1)NC(=O)[C@H](Cc1c[nH]cn1)NC(=O)CCCCCn1cc(CN(Cc2cn(CCCCCC(=O)N[C@@H](CO)C(N)=O)nn2)Cc2cn(CCCCCC(=O)N[C@@H](Cc3c[nH]cn3)C(=O)N[C@H](Cc3ccccc3)C(=O)N[C@@H](CCCNC(=N)N)C(=O)N[C@@H](Cc3c[nH]c4ccccc34)C(N)=O)nn2)nn1)C(=O)N[C@@H](Cc1c[nH]c2ccccc12)C(N)=O` [Compound 16b, 6,6′-(4,4′-((((1-(6-(((S)-1-Amino-3-hydroxy-1-oxopropan-2-yl)amino)-6-oxohexyl)-1H-1,2,3-triazol-4-yl)methyl)azanediyl)bis(methylene))bis(1H-1,2,3-triazole-4,1-diyl))bis(N-((S)-1-(((R)-1-(((S)-1-(((S)-1-amino-3-(1H-indol-3-yl)-1-oxopropan-2-yl)amino)-5-guanidino-1-oxopentan-2-yl)amino)-1-oxo-3-phenylpropan-2-yl)amino)-3-(1H-imidazol-4-yl)-1-oxopropan-2-yl)hexanamide)], at hMC4R [1], the affinity corresponds to a Ki of 69 ± 12 nM, the “Relative Potency” value is listed as 32 and the “Ki lower than / inhibition higher than the corresponding monovalent molecule” value is given as 32 fold.

In the case of `N=C(N)NCCC[C@H](NC(=O)[C@@H](Cc1ccccc1)NC(=O)[C@H](Cc1c[nH]cn1)NC(=O)CCCCCn1cc(CN(Cc2cn(CCCCCC(=O)N[C@@H](Cc3c[nH]cn3)C(=O)N[C@H](Cc3ccccc3)C(=O)N[C@@H](CCCNC(=N)N)C(=O)N[C@@H](Cc3c[nH]c4ccccc34)C(N)=O)nn2)Cc2cn(CCCCCC(=O)N[C@@H](Cc3c[nH]cn3)C(=O)N[C@H](Cc3ccccc3)C(=O)N[C@@H](CCCNC(=N)N)C(=O)N[C@@H](Cc3c[nH]c4ccccc34)C(N)=O)nn2)nn1)C(=O)N[C@@H](Cc1c[nH]c2ccccc12)C(N)=O` [Compound 16c, 6,6′,6″-(4,4′,4″-(Nitrilotris(methylene))tris(1H-1,2,3-triazole-4,1-diyl))tris(N-((S)-1-(((R)-1-(((S)-1-(((S)-1-amino-3-(1H-indol-3-yl)-1-oxopropan-2-yl)amino)-5-guanidino-1-oxopentan-2-yl)amino)-1-oxo-3-phenylpropan-2-yl)amino)-3-(1H-imidazol-4-yl)-1-oxopropan-2-yl)hexanamide)], on hMC4R [1], the inhibition constant Ki amounted to 36 ± 4 nM and the “Relative Potency” value is reported as 61.

Take `N=C(N)NCCC[C@H](NC(=O)[C@@H](Cc1ccccc1)NC(=O)[C@H](Cc1c[nH]cn1)NC(=O)CCCCCn1cc(CN2CCN(Cc3cn(CCCCCC(=O)N[C@@H](Cc4c[nH]cn4)C(=O)N[C@H](Cc4ccccc4)C(=O)N[C@@H](CCCNC(=N)N)C(=O)N[C@@H](Cc4c[nH]c5ccccc45)C(N)=O)nn3)CCN(Cc3cn(CCCCCC(=O)N[C@@H](Cc4c[nH]cn4)C(=O)N[C@H](Cc4ccccc4)C(=O)N[C@@H](CCCNC(=N)N)C(=O)N[C@@H](Cc4c[nH]c5ccccc45)C(N)=O)nn3)CC2)nn1)C(=O)N[C@@H](Cc1c[nH]c2ccccc12)C(N)=O` [Compound 18, 6,6′,6″-(4,4′,4″-((1,4,7-Triazonane-1,4,7-triyl)tris(methylene))tris(1H-1,2,3-triazole-4,1-diyl))tris(N-((S)-1-(((R)-1-(((S)-1-(((S)-1-amino-3-(1H-indol-3-yl)-1-oxopropan-2-yl)amino)-5-guanidino-1-oxopentan-2-yl)amino)-1-oxo-3-phenylpropan-2-yl)amino)-3-(1H-imidazol-4-yl)-1-oxopropan-2-yl)hexanamide)]: the affinity at hMC4R [1], expressed as Ki, was 25 ± 4 nM.

The term Kd denotes the concentration at which binding is half-saturated. As to `CCCC[C@H](NC(=O)[C@H](CO)NC(=O)COCC(=O)NCCCOCCOCCOCCCNC(=O)CN(CCN(CCN(CC(=O)O)CC(=O)O)CC(=O)O)CC(=O)O)C(=O)N[C@@H](CCC(=O)O)C(=O)N[C@@H](Cc1c[nH]cn1)C(=O)N[C@H](Cc1ccccc1)C(=O)N[C@@H](CCCNC(=N)N)C(=O)N[C@@H](Cc1c[nH]c2ccccc12)C(N)=O` [Compound 19, Eu-DTPA-PEGO-MSH(7)-NH2] (X1-S[Nle]EH[dF]RW-NH2), the dissociation constant Kd at hMC4R [2] is 27 ± 4 nM.

The values are drawn from publication PMC4780440 (Organic & biomolecular chemistry, 2015).
